Laboratory results published in the supplement of paper PMC7341893.
± gives the standard deviation of the averaged measurements.

Columns and labels:
Assay in all cases: growth (OD600) normalised to reference wells; higher = more growth / less inhibition
GPI15_HIP = system: GPI15_HIP
Protocol: (§1)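 S. cerevisiae strains (wild type, SPT14 point-mutant knock-ins, HIP heterozygous and HOP homozygous deletion strains) were grown in rich medium in 96-well plates with 12-point serial dilutions of jawsamycin or clotrimazole (DMSO normalised to 2%). Growth was read as OD600 and normalised within each dilution series (NormOD, % growth). Wells set exactly to 100 are normalisation references and are left out.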

GPI1_HIP = system: GPI1_HIP
Protocol: as §1

GPI2_HIP = system: GPI2_HIP
Protocol: as §1

HO_HIP = system: HO_HIP
Protocol: as §1

SPT14(H106Y) = system: SPT14(H106Y)
Protocol: as §1

SPT14(T114A) = system: SPT14(T114A)
Protocol: as §1

SPT14(V76F) = system: SPT14(V76F)
Protocol: as §1

SPT14(WT) = system: SPT14(WT)
Protocol: as §1

SPT14_HIP = system: SPT14_HIP
Protocol: as §1

Clc1ccccc1C(c1ccccc1)(c1ccccc1)n1ccnc1 [Clotrimazole]
growth [%]
Conditions | GPI1_HIP | GPI2_HIP | GPI15_HIP | HO_HIP | SPT14(H106Y) | SPT14(T114A) | SPT14(V76F) | SPT14(WT) | SPT14_HIP
0.0599525 µM | – | – | – | – | 87.7 ± 6.5 | 89.1 ± 4.4 | – | 86.2 ± 5 | –
0.1259 µM | – | – | – | – | – | – | 101 ± 3.1 | – | –
0.125900179 µM | 99.71 ± 0.51 | 101.2 ± 0.33 | 100.7 ± 0.32 | 101 ± 1.2 | 60.9 ± 11 | 72 ± 5.1 | – | 69.1 ± 4.9 | 101.3 ± 0.97
0.26439 µM | 99.45 ± 0.29 | 99.573 ± 0.072 | 99.95 ± 0.26 | 98.3 ± 1 | 6.75 ± 1.9 | 33.3 ± 5.7 | 99.4 ± 2.3 | 8.87 ± 1 | 99.746 ± 0.049
0.55522 µM | 92.9 ± 1 | 94.15 ± 0.9 | 94.01 ± 0.25 | 94.61 ± 0.88 | 7.18 ± 0.99 | 13.3 ± 1.6 | 104 ± 3.8 | 9.82 ± 2 | 91.5 ± 1.1
1.16596 µM | 10.1 ± 0.075 | 14.5 ± 5.7 | 7.93 ± 0.35 | 8.24 ± 1.2 | 4.48 ± 4 | 12.5 ± 3.9 | 97.7 ± 5.1 | 6.88 ± 3.3 | 11.7 ± 2.5
2.44852 µM | 4.4 ± 0.89 | 2.59 ± 0.9 | 3.69 ± 0.34 | 1.95 ± 0.62 | 5.03 ± 1.3 | 15.9 ± 2.4 | 95.9 ± 2.8 | 6.32 ± 1.9 | 3.86 ± 1.1
5.14189 µM | 1.82 ± 0.74 | 1.15 ± 0.38 | 1.3 ± 0.63 | 0.55 ± 0.51 | 3.41 ± 0.64 | 12 ± 2.4 | 98.2 ± 2.2 | 4.16 ± 1.9 | 1.8 ± 0.16
10.79796998 µM | 0.134 ± 0.29 | 0.0555 ± 0.12 | -0.36 ± 0.11 | -0.231 ± 0.18 | 1.98 ± 0.98 | 3.16 ± 0.58 | – | 3 ± 0.5 | 0.0343 ± 0.0096
10.798 µM | – | – | – | – | – | – | 4.41 ± 1.4 | – | –
22.6757 µM | -0.448 ± 0.11 | -0.447 ± 0.076 | -0.813 ± 0.16 | -0.622 ± 0.1 | 2.09 ± 0.21 | 3.52 ± 0.83 | 0.641 ± 0.71 | 3.43 ± 0.38 | -0.803 ± 0.032
47.619 µM | -0.6398 ± 0.0048 | -0.447 ± 0.21 | -0.839 ± 0.038 | -0.564 ± 0.018 | -0.417 ± 0.078 | 0.134 ± 0.084 | -1.36 ± 0.098 | -0.421 ± 0.093 | -0.679 ± 0.11
100 µM | 1.31 ± 0.1 | 1.041 ± 0.0034 | 0.998 ± 0.065 | 1.08 ± 0.34 | -0.409 ± 0.09 | 0.19 ± 0.064 | -0.859 ± 0.094 | -0.41 ± 0.088 | 1.11 ± 0.42
